Experimental data published in patent US20260258038A1 (priority 2023, published 2026).

Legend:
[1] = system: Plasmopara viticola; test: whole plant or invertebrate; assay type: in vivo; conditions: foliar, read-out: control of Plasmopara viticola (percent disease control compared to untreated)
[2] = system: Phytophthora infestans; test: whole plant or invertebrate; assay type: in vivo; conditions: in Solanum lycopersicum, foliar, read-out: control of Phytophthora infestans (percent disease control compared to untreated)
[3] = system: Pythium ultimum; test: Pythium ultimum / liquid culture (seedling damping off); assay type: cell-based; conditions: Globisporangium ultimum, liquid culture in PDB, 24° C., 2-3 days after application, read-out: control of Pythium ultimum (inhibition of growth, photometric)
Protocol: Pythium ultimum/Liquid Culture (Seedling Damping Off)
Mycelia fragments and oospores of a newly grown liquid culture of the fungus are directly mixed into nutrient broth (PDB potato dextrose broth). After placing a (DMSO) solution of test compound into a microtiter plate (96-well format), the nutrient broth containing the fungal mycelia/spore mixture is added. The test plates are incubated at 24° C. and the inhibition of growth is determined photometrically 2-3 days after application.

| Compound | pest or weed control at 200 ppm [1] [%] | pest or weed control at 200 ppm [2] [%] | inhibition at 20 ppm [3] [%] |
| --- | --- | --- | --- |
| C=CCCc1cc(N(C)C(=O)c2ccc(F)c(OC)c2)cn2c(-c3ccc(NC(=O)OC)nc3)cnc12 [Compound 58, methyl N-[5-[8-but-3-enyl-6-[(4-fluoro-3-methoxy-benzoyl)-methyl-amino]imidazo[1,2-a]pyridin-3-yl]-2-pyridyl]carbamate] | ≥ 80 | ≥ 80 | ≥ 80 |
| COC(=O)Nc1ccc(-c2cnc3c(C)cc(N(C)C(=O)c4ccc(F)c(OC)c4)cn23)cn1 [Compound 13, methyl N-[5-[6-[(4-fluoro-3-methoxy-benzoyl)-methyl-amino]-8-methyl-imidazo[1,2-a]pyridin-3-yl]-2-pyridyl]carbamate] | ≥ 80 | ≥ 80 | ≥ 80 |
| COC(=O)Nc1ccc(-c2cnc3c(C)cc(N(C)C(=O)c4ccccc4C(=O)OC)cn23)cn1 [Compound 40] |  | ≥ 80 |  |
| COC(=O)Nc1ccc(-c2cnc3c(C)cc(N(C)C(=O)c4ccc(Cl)c(C)c4)cn23)cn1 [Compound 41, methyl N-[5-[6-[(4-chloro-3-methyl-benzoyl)-methyl-amino]-8-methyl-imidazo[1,2-a]pyridin-3-yl]-2-pyridyl]carbamate] | ≥ 80 | ≥ 80 | ≥ 80 |
| CCOc1cc(C(=O)N(C)c2ccc3ncc(-c4ccc(NC(=O)OC)nc4)n3c2)ccc1F [Compound 23, methyl N-[5-[6-[(3-ethoxy-4-fluoro-benzoyl)-methyl-amino]imidazo[1,2-a]pyridin-3-yl]-2-pyridyl]carbamate] |  | ≥ 80 | ≥ 80 |
| COC(=O)Nc1ccc(-c2cnc3ccc(N(C)C(=O)c4ccc(F)c(F)c4)cn23)cn1 [Compound 22, methyl N-[5-[6-[(3,4-difluorobenzoyl)-methyl-amino]imidazo[1,2-a]pyridin-3-yl]-2-pyridyl]carbamate] |  | ≥ 80 | ≥ 80 |
| COC(=O)Nc1ccc(-c2cnc3ccc(N(C)C(=O)c4ccc(F)c(C)c4)cn23)cn1 [Compound 21, methyl N-[5-[6-[(4-fluoro-3-methyl-benzoyl)-methyl-amino]imidazo[1,2-a]pyridin-3-yl]-2-pyridyl]carbamate] |  | ≥ 80 | ≥ 80 |
| COC(=O)Nc1ccc(-c2cnc3ccc(N(CCC#N)C(=O)c4ccc(F)c(OC)c4)cn23)cn1 [Compound 62, methyl N-[5-[6-[2-cyanoethyl-(4-fluoro-3-methoxy-benzoyl)amino]imidazo[1,2-a]pyridin-3-yl]-2-pyridyl]carbamate] |  | ≥ 80 | ≥ 80 |
| COC(=O)Nc1ccc(-c2cnc3c(C)cc(N(C)C(=O)c4cccnc4SC)cn23)cn1 [Compound 46, methyl N-[5-[8-methyl-6-[methyl-(2-methylsulfanylpyridine-3-carbonyl)amino]imidazo[1,2-a]pyridin-3-yl]-2-pyridyl]carbamate] |  | ≥ 80 |  |
| COC(=O)Nc1ccc(-c2cnc3c(C)cc(N(C)C(=O)c4ccc(C#N)nc4)cn23)cn1 [Compound 51, methyl N-[5-[6-[(6-cyanopyridine-3-carbonyl)-methyl-amino]-8-methyl-imidazo[1,2-a]pyridin-3-yl]-2-pyridyl]carbamate] |  | ≥ 80 |  |
| CCOc1cc(C(=O)N(C)c2cc(C)c3ncc(-c4ccc(NC(=O)OC)nc4)n3c2)ccc1F [Compound 19, methyl N-[5-[6-[(3-ethoxy-4-fluoro-benzoyl)-methyl-amino]-8-methyl-imidazo[1,2-a]pyridin-3-yl]-2-pyridyl]carbamate] |  | ≥ 80 | ≥ 80 |
| COC(=O)Nc1ccc(-c2cnc3ccc(N(CC#N)C(=O)c4ccc(F)cc4)cn23)cn1 [Compound 6, methyl N-[5-[6-[cyanomethyl-(4-fluorobenzoyl)amino]imidazo[1,2-a]pyridin-3-yl]-2-pyridyl]carbamate] |  |  | ≥ 80 |
| COC(=O)Nc1ccc(-c2cnc3ccc(N(CC#N)C(=O)c4ccc(F)c(OC)c4)cn23)cn1 [Compound 7, methyl N-[5-[6-[cyanomethyl-(4-fluoro-3-methoxy-benzoyl)amino]imidazo[1,2-a]pyridin-3-yl]-2-pyridyl]carbamate] |  |  | ≥ 80 |
| COC(=O)Nc1ccc(-c2cnc3c(C)cc(N(C)C(=O)c4ccc(C#N)c(C)c4)cn23)cn1 [Compound 2, methyl N-[5-[6-[(4-cyano-3-methyl-benzoyl)-methyl-amino]-8-methyl-imidazo[1,2-a]pyridin-3-yl]-2-pyridyl]carbamate] |  |  | ≥ 80 |
| COC(=O)Nc1ccc(-c2cnc3c(Br)cc(N(C)C(=O)c4ccc(F)c(OC)c4)cn23)cn1 [Compound 60, methyl N-[5-[8-bromo-6-[(4-fluoro-3-methoxy-benzoyl)-methyl-amino]imidazo[1,2-a]pyridin-3-yl]-2-pyridyl]carbamate] | ≥ 80 | ≥ 80 | ≥ 80 |
| COC(=O)Nc1ccc(-c2cnc3c(C#N)cc(N(C)C(=O)c4ccc(F)c(OC)c4)cn23)cn1 [Compound 55, methyl N-[5-[8-cyano-6-[(4-fluoro-3-methoxy-benzoyl)-methyl-amino]imidazo[1,2-a]pyridin-3-yl]-2-pyridyl]carbamate] | ≥ 80 | ≥ 80 | ≥ 80 |
| COC(=O)Nc1ccc(-c2cnc3c(NC(C)=O)cc(N(C)C(=O)c4ccc(F)c(OC)c4)cn23)cn1 [Compound 59, methyl N-[5-[8-acetamido-6-[(4-fluoro-3-methoxy-benzoyl)-methyl-amino]imidazo[1,2-a]pyridin-3-yl]-2-pyridyl]carbamate] |  | ≥ 80 | ≥ 80 |
| COC(=O)Nc1ccc(-c2cnc3c(C)cc(N(C)C(=O)c4cccc(OC)n4)cn23)cn1 [Compound 37, methyl N-[5-[6-[(6-methoxypyridine-2-carbonyl)-methyl-amino]-8-methyl-imidazo[1,2-a]pyridin-3-yl]-2-pyridyl]carbamate] |  | ≥ 80 |  |
| COC(=O)Nc1ccc(-c2cnc3ccc(N(C)C(=O)c4ccc(F)c(OC)c4)cn23)cn1 [Compound 26, methyl N-[5-[6-[(4-fluoro-3-methoxy-benzoyl)-methyl-amino]imidazo[1,2-a]pyridin-3-yl]-2-pyridyl]carbamate] | ≥ 80 | ≥ 80 | ≥ 80 |
| COC(=O)Nc1ccc(-c2cnc3ccc(N(C)C(=O)c4ccc(C#N)c(C)c4)cn23)cn1 [Compound 17, methyl N-[5-[6-[(4-cyano-3-methyl-benzoyl)-methyl-amino]imidazo[1,2-a]pyridin-3-yl]-2-pyridyl]carbamate] |  |  | ≥ 80 |
| COC(=O)Nc1ccc(-c2cnc3c(C)cc(N(C)C(=O)c4ccc(F)c(F)c4)cn23)cn1 [Compound 12, methyl N-[5-[6-[(3,4-difluorobenzoyl)-methyl-amino]-8-methyl-imidazo[1,2-a]pyridin-3-yl]-2-pyridyl]carbamate] | ≥ 80 | ≥ 80 | ≥ 80 |
| COCCN(C(=O)c1ccc(F)c(OC)c1)c1ccc2ncc(-c3ccc(NC(=O)OC)nc3)n2c1 [Compound 14, methyl N-[5-[6-[(4-fluoro-3-methoxy-benzoyl)-(2-methoxyethyl)amino]imidazo[1,2-a]pyridin-3-yl]-2-pyridyl]carbamate] |  |  | ≥ 80 |
| COC(=O)Nc1ccc(-c2cnc3c(C)cc(N(C)C(=O)c4cnc(F)c(C)c4)cn23)cn1 [Compound 43, methyl N-[5-[6-[(6-fluoro-5-methyl-pyridine-3-carbonyl)-methyl-amino]-8-methyl-imidazo[1,2-a]pyridin-3-yl]-2-pyridyl]carbamate] |  | ≥ 80 | ≥ 80 |
| COCN(C(=O)c1ccc(F)cc1)c1ccc2ncc(-c3ccc(NC(=O)OC)nc3)n2c1 [Compound 24, methyl N-[5-[6-[(4-fluorobenzoyl)-(methoxymethyl)amino]imidazo[1,2-a]pyridin-3-yl]-2-pyridyl]carbamate] |  | ≥ 80 | ≥ 80 |
| COC(=O)Nc1ccc(-c2cnc3c(C)cc(N(C)C(=O)c4ccnc(OC)c4)cn23)cn1 [Compound 3, methyl N-[5-[6-[(2-methoxypyridine-4-carbonyl)-methyl-amino]-8-methyl-imidazo[1,2-a]pyridin-3-yl]-2-pyridyl]carbamate] |  | ≥ 80 | ≥ 80 |
| COC(=O)Nc1ccc(-c2cnc3ccc(N(C)C(=O)c4ccc(Cl)cc4)cn23)cc1 [Compound 27, methyl N-[4-[6-[(4-chlorobenzoyl)-methyl-amino]imidazo[1,2-a]pyridin-3-yl]phenyl]carbamate] | ≥ 80 |  | ≥ 80 |
| COC(=O)Nc1ccc(-c2cnc3ccc(N(C)C(=O)c4ccc(C#N)c(F)c4)cn23)cn1 [Compound 15, methyl N-[5-[6-[(4-cyano-3-fluoro-benzoyl)-methyl-amino]imidazo[1,2-a]pyridin-3-yl]-2-pyridyl]carbamate] |  |  | ≥ 80 |
| COC(=O)Nc1ccc(-c2cnc3c(C)cc(N(C)C(=O)c4ccc(C#N)c(F)c4)cn23)cn1 [Compound 4, methyl N-[5-[6-[(4-cyano-3-fluoro-benzoyl)-methyl-amino]-8-methyl-imidazo[1,2-a]pyridin-3-yl]-2-pyridyl]carbamate] |  |  | ≥ 80 |
